Measured values: patent publication US12516285B2, “Small peptide MIPEP166I and use thereof in plant tissue culture” (Nanjing Forestry University, priority 2023, dated 2026)
Marks after values point to notes of the source that are not given here.

Legend:
Type in all cases: in vivo, 84K poplar (Populus alba×Populus tremula var. glandulosa)
miR166i = assay: RT-qPCR of miR166i in 84K poplar after exogenous peptide treatment
Procedure: (§1) The three synthetic peptides were each added to MS medium at a concentration of 5 μM as exogenous treatments, while sterile water was chosen as the blank control (CK) treatment (FIG. 1B).
(§2) To investigate the possible role of miPEP166i in its corresponding miRNA biogenesis, RT-qPCR was first used to analyze the abundance changes of pri-miR166i and miR166i in 84K poplar after 24 hours of exogenous treatment.
(§3) During the process of adventitious root elongation, samples collected at 6, 9, and 12 days after cultivation (T1, T2, and T3 stages) were used to detect the expression of miR166i and its targets, aiming to explore the dynamic regulatory pattern of exogenous miPEP166i treatment (FIG. 3A). Due to the equivalence of NSP and IP treatments (FIG. 2G and FIG. 2H), only samples treated with CK, NSP, and miPEP, along with control samples, were used for quantitative miRNA expression and transcriptome sequencing analysis.

84K poplar = assay: Adventitious root formation and elongation in tissue culture on peptide-treated MS medium; settings: 5 μM in MS medium, plants cultured for two weeks, n=15
Procedure: as §1
This may be due to the exogenous peptides acting as biological stimulants and osmotic agents, broadly inducing miRNA expression, with the lowest expression of miR166i observed in the CK samples.

pri-miR166i = assay: RT-qPCR of pri-miR166i in 84K poplar stem explants after exogenous peptide treatment; settings: 5 μM in MS medium, 24 hours, vs control treatments
Procedure: as §1, §2

PagHB8 = assay: Expression of miR166i target gene PagHB8 (RT-qPCR and RNA-seq)
Excerpt: as §3
(§4) RNA-seq libraries were constructed from the root systems of 84K poplar to investigate the effects of miPEP166i induction on miR166i targets.

PagREV = assay: Expression of miR166i target gene PagREV (RT-qPCR and RNA-seq)
Excerpt: as §3, §4

[1] = test system: root systems of 84K poplar; assay: Time-course transcriptome (RNA-seq), differentially expressed genes; settings: for differentially expressed genes (DEGs): miPEP vs mock and vs NSP, |log2FC|>1 and FDR<0.05
Excerpt: as §3, §4
(§5) Using time-course transcriptome data from the root systems of 84K poplar, we explored the potential downstream gene expression responses induced by exogenous application of miPEP166i. By cross-comparing miPEP treatment with mock treatment and miPEP treatment with NSP treatment, we identified 114, 130, and 547 differentially expressed genes (DEGs) (|log2FC|>1 and FDR<0.05) at the T1, T2, and T3 stages, respectively. […] These genes are controlled by the master switches of HD-ZIP III transcription factors.

[2] = test system: Genes in Hormone Metabolism and Signaling Pathways; assay: Time-course transcriptome (RNA-seq), hormone-related genes
Excerpt: as §3, §4, §5
Multiple intersections between hormone signaling and HD-ZIP III activity occur during root elongation. Numerous plant hormone-related genes were found within the DEG set, including genes related to auxin and cytokinin synthesis, (De)conjugation, transport, and signaling (Table 1).

[3] = T1 stage (6 days after culture), P<0.05
[4] = T2 and T3 stages (9 and 12 days after culture)
[5] = T3 stage (12 DAC), miPEP vs NSP

IP: interference control peptide, same amino acids but different sequence, MSDFGGQPTLPFCLSSLNPKSTLK (SEQ ID NO.5)
expression of miR166i compared to NSP samples (miR166i; 5 μM in MS medium, stem explants, 24 hours): slightly higher expression of miR166i was observed after IP treatment compared to its expression in NSP samples, the difference was not significant | length of adventitious roots (84K poplar): equivalence | number of adventitious roots (84K poplar): equivalence

NSP: non-specific control peptide of 15 amino acids, CLLNCPIYWQQLREX (SEQ ID NO.4)
length of adventitious roots (84K poplar): equivalence | number of adventitious roots (84K poplar): equivalence

miPEP166i: small peptide encoded by pri-miRNA166i of 84K poplar, amino acid sequence SEQ ID NO.3 (MDGQTPCSLPSLSFGPLFLSNKTK; Populus alba x Populus tremula var. glandulosa)
expression of pri-miR166i (pri-miR166i): did not result in significant changes | expression of miR166i (miR166i; 5 μM in MS medium, stem explants, 24 hours, vs the three control treatments): significantly enhanced | miR166i expression (miR166i; T1, T2 and T3 stages (6, 9, 12 days after culture), vs CK and NSP): significant enhancement | length of adventitious roots (84K poplar): significant increase | number of adventitious roots (84K poplar): significant increase | expression of PagHB8 (PagHB8; [3]): significantly reduced | expression of PagHB8 (PagHB8; [4]): no significant reduction | expression of PagREV (PagREV; [3]): significantly reduced | expression of PagREV (PagREV; [4]): no significant reduction | differentially expressed genes (DEGs) ([1]; T1 stage): 114 | differentially expressed genes (DEGs) ([1]; T2 stage): 130 | differentially expressed genes (DEGs) ([1]; T3 stage): 547 | downregulated genes ([1]; across all three stages): 139 | upregulated genes ([1]; across all three stages): 552 | expression of genes involved in cellulose and lignin biosynthesis (PagCSLD4, PagCAD7, PagCOBL1, PagPAL2) ([1]; miPEP-treated samples, root transcriptome): upregulated | FC_T1 miPEP/CK, ABCB9 (Pag_G_024492) ([2]; T1 stage (6 DAC), miPEP vs CK): −1.07* | FC_T1 miPEP/CK, CKX3 (Pag_A_037490) ([2]; T1 stage (6 DAC), miPEP vs CK): 4.85* | FC_T1 miPEP/CK, GH3.10 (Pag_A_034334) ([2]; T1 stage (6 DAC), miPEP vs CK): −2.92* | FC_T1 miPEP/CK, GH3.10 (Pag_G_015269) ([2]; T1 stage (6 DAC), miPEP vs CK): −1.67** | FC_T1 miPEP/CK, GH3.10 (Pag_G_025244) ([2]; T1 stage (6 DAC), miPEP vs CK): −4.42* | FC_T1 miPEP/CK, LOG5 (Pag_G_021773) ([2]; T1 stage (6 DAC), miPEP vs CK): −1.91* | FC_T1 miPEP/NSP, ABCB9 (Pag_G_024492) ([2]; T1 stage (6 DAC), miPEP vs NSP): −0.72 | FC_T1 miPEP/NSP, CKX3 (Pag_A_037490) ([2]; T1 stage (6 DAC), miPEP vs NSP): 2.61 | FC_T1 miPEP/NSP, GH3.10 (Pag_A_034334) ([2]; T1 stage (6 DAC), miPEP vs NSP): −2.2 | FC_T1 miPEP/NSP, GH3.10 (Pag_G_015269) ([2]; T1 stage (6 DAC), miPEP vs NSP): −1.21* | FC_T1 miPEP/NSP, GH3.10 (Pag_G_025244) ([2]; T1 stage (6 DAC), miPEP vs NSP): −3.64 | FC_T1 miPEP/NSP, LOG5 (Pag_G_021773) ([2]; T1 stage (6 DAC), miPEP vs NSP): −2.14* | FC_T2 miPEP/CK, CKI1 (Pag_A_024550) ([2]; T2 stage (9 DAC), miPEP vs CK): 1.02** | FC_T2 miPEP/CK, CKI1 (Pag_G_014127) ([2]; T2 stage (9 DAC), miPEP vs CK): 0.93* | FC_T2 miPEP/CK, CKX1 (Pag_G_016517) ([2]; T2 stage (9 DAC), miPEP vs CK): −1.17 | FC_T2 miPEP/CK, TAA1 (Pag_G_035628) ([2]; T2 stage (9 DAC), miPEP vs CK): 0.74 | FC_T2 miPEP/CK, TAA1 (Pag_G_035629) ([2]; T2 stage (9 DAC), miPEP vs CK): 0.78 | FC_T2 miPEP/NSP, CKI1 (Pag_A_024550) ([2]; T2 stage (9 DAC), miPEP vs NSP): 1.11** | FC_T2 miPEP/NSP, CKI1 (Pag_G_014127) ([2]; T2 stage (9 DAC), miPEP vs NSP): 1.14** | FC_T2 miPEP/NSP, CKX1 (Pag_G_016517) ([2]; T2 stage (9 DAC), miPEP vs NSP): −2.19* | FC_T2 miPEP/NSP, TAA1 (Pag_G_035628) ([2]; T2 stage (9 DAC), miPEP vs NSP): 1.72* | FC_T2 miPEP/NSP, TAA1 (Pag_G_035629) ([2]; T2 stage (9 DAC), miPEP vs NSP): 1.49** | expression of genes encoding auxin transport proteins (PIN, ABCB, PIN-LIKES) ([2]; T3 stage): significantly increased | FC_T3 miPEP/CK, ABCB8 (Pag_A_020924) ([2]; T3 stage (12 DAC), miPEP vs CK): −1.18** | FC_T3 miPEP/CK, ABCB11 (Pag_A_005381) ([2]; T3 stage (12 DAC), miPEP vs CK): 2.40** | FC_T3 miPEP/CK, ABCB11 (Pag_A_010928) ([2]; T3 stage (12 DAC), miPEP vs CK): 1.90** | FC_T3 miPEP/CK, ABCB11 (Pag_G_007723) ([2]; T3 stage (12 DAC), miPEP vs CK): 2.08** | FC_T3 miPEP/CK, ABCB15 (Pag_A_017535) ([2]; T3 stage (12 DAC), miPEP vs CK): 1.05** | FC_T3 miPEP/CK, ABCB15 (Pag_G_028009) ([2]; T3 stage (12 DAC), miPEP vs CK): 1.21** | FC_T3 miPEP/CK, ABCB25 (Pag_A_009324) ([2]; T3 stage (12 DAC), miPEP vs CK): 1.18 | FC_T3 miPEP/CK, ARF11 (Pag_G_003815) ([2]; T3 stage (12 DAC), miPEP vs CK): −1.75** | FC_T3 miPEP/CK, IAA29 (Pag_G_007396) ([2]; T3 stage (12 DAC), miPEP vs CK): −0.94* | FC_T3 miPEP/CK, LOG1 (Pag_A_016041) ([2]; T3 stage (12 DAC), miPEP vs CK): −2.72** | FC_T3 miPEP/CK, LOG3 (Pag_G_010191) ([2]; T3 stage (12 DAC), miPEP vs CK): −1.55 | FC_T3 miPEP/CK, PILS3 (Pag_A_012930) ([2]; T3 stage (12 DAC), miPEP vs CK): 4.74* | FC_T3 miPEP/CK, PILS7 (Pag_G_005929) ([2]; T3 stage (12 DAC), miPEP vs CK): 0.96** | FC_T3 miPEP/CK, PIN7 (Pag_A_015236) ([2]; T3 stage (12 DAC), miPEP vs CK): 1.33** | FC_T3 miPEP/CK, PIN8 (Pag_A_008558) ([2]; T3 stage (12 DAC), miPEP vs CK): −1.07* | FC_T3 miPEP/CK, PIN8 (Pag_G_019315) ([2]; T3 stage (12 DAC), miPEP vs CK): 1.02** | FC_T3 miPEP/NSP, ABCB8 (Pag_A_020924) [2, 5]: −0.71 | FC_T3 miPEP/NSP, ABCB11 (Pag_A_005381) [2, 5]: 1.34** | FC_T3 miPEP/NSP, ABCB11 (Pag_A_010928) [2, 5]: 1.13* | FC_T3 miPEP/NSP, ABCB11 (Pag_G_007723) [2, 5]: 1.34* | FC_T3 miPEP/NSP, ABCB15 (Pag_A_017535) [2, 5]: 1.11** | FC_T3 miPEP/NSP, ABCB15 (Pag_G_028009) [2, 5]: 1.27** | FC_T3 miPEP/NSP, ABCB25 (Pag_A_009324) [2, 5]: 3.26* | FC_T3 miPEP/NSP, ARF11 (Pag_G_003815) [2, 5]: −1.14* | FC_T3 miPEP/NSP, IAA29 (Pag_G_007396) [2, 5]: −1.21** | FC_T3 miPEP/NSP, LOG1 (Pag_A_016041) [2, 5]: −2.28* | FC_T3 miPEP/NSP, LOG3 (Pag_G_010191) [2, 5]: −1.86* | FC_T3 miPEP/NSP, PILS3 (Pag_A_012930) [2, 5]: −2.93 | FC_T3 miPEP/NSP, PILS7 (Pag_G_005929) [2, 5]: 1.03** | FC_T3 miPEP/NSP, PIN7 (Pag_A_015236) [2, 5]: 1.08** | FC_T3 miPEP/NSP, PIN8 (Pag_A_008558) [2, 5]: −0.94 | FC_T3 miPEP/NSP, PIN8 (Pag_G_019315) [2, 5]: 1.16** | expression of PagCKI1 (cytokinin signaling) ([2]; miPEP-treated samples): upregulated | expression of PagGH3 (auxin conjugation) ([2]; miPEP-treated samples): downregulated | expression of auxin synthesis gene PagTAA1 ([2]; miPEP-treated samples): significantly upregulated | expression of cytokinin synthesis gene PagLOG ([2]; miPEP-treated samples): significantly downregulated
